Source: PubChem BioAssay AID1963985 (Molecular Pharmacology Branch, DTP, NCI, 2024)
Blank lines part the entries; values can stand above or below the molecule they belong to.

System: 252836-082-R-J2-PDC tumor spheroids, viability
Test: Anticancer human tumor 252836-082-R-J2-PDC patient-derived head and neck squamous cell carcinoma cell line growth inhibition [PI3K]
Conditions: spheroids with HUVEC and MSC; for IC50: curve of first compound; for viability, T/C: stronger effect = lower value
Outline: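 Complex 3D spheroids (cancer cells + endothelial HUVEC + mesenchymal stem cells); drug pairs of targeted agent x inavolisib/alpelisib/duvelisib/copanlisib; half-log series from ~Cmax, max 10 microM if Cmax unknown; endpoint viability.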

[1] = second compound 0.00316 µM, first compound 0.0316 µM
[2] = second compound 0.00316 µM, first compound 0.1 µM
[3] = second compound 0.00316 µM, first compound 0.316 µM
[4] = second compound 0.00316 µM, first compound 1 µM
[5] = second compound 0.00316 µM, first compound 3.16 µM
[6] = second compound 0.00316 µM, first compound 10 µM
[7] = second compound 0.01 µM, first compound 0.0316 µM
[8] = second compound 0.01 µM, first compound 0.1 µM
[9] = second compound 0.01 µM, first compound 0.316 µM
[10] = second compound 0.01 µM, first compound 1 µM
[11] = second compound 0.01 µM, first compound 3.16 µM
[12] = second compound 0.01 µM, first compound 10 µM
[13] = second compound 0.0316 µM, first compound 0.0316 µM
[14] = second compound 0.0316 µM, first compound 0.1 µM
[15] = second compound 0.0316 µM, first compound 0.316 µM
[16] = second compound 0.0316 µM, first compound 1 µM
[17] = second compound 0.0316 µM, first compound 3.16 µM
[18] = second compound 0.0316 µM, first compound 10 µM
[19] = second compound 0.1 µM, first compound 0.0316 µM
[20] = second compound 0.1 µM, first compound 0.1 µM
[21] = second compound 0.1 µM, first compound 0.316 µM
[22] = second compound 0.1 µM, first compound 1 µM
[23] = second compound 0.1 µM, first compound 3.16 µM
[24] = second compound 0.1 µM, first compound 10 µM
[25] = second compound 0.316 µM, first compound 0.0316 µM
[26] = second compound 0.316 µM, first compound 0.1 µM
[27] = second compound 0.316 µM, first compound 0.316 µM
[28] = second compound 0.316 µM, first compound 1 µM
[29] = second compound 0.316 µM, first compound 3.16 µM
[30] = second compound 0.316 µM, first compound 10 µM
[31] = second compound 1 µM, first compound 0.0316 µM
[32] = second compound 1 µM, first compound 0.1 µM
[33] = second compound 1 µM, first compound 0.316 µM
[34] = second compound 1 µM, first compound 1 µM
[35] = second compound 1 µM, first compound 3.16 µM
[36] = second compound 1 µM, first compound 10 µM
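Also: spheroids exposed to agents for seven days before readout.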
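For viability, T/C in this document: percent of vehicle DMSO control viability so 100% = untreated growth.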

IC50 (second compound 0.00316 µM): 1040 nM | IC50 (second compound 0.01 µM): 566 nM | IC50 (second compound 0.0316 µM): 285 nM | IC50 (second compound 0.1 µM): < 31.6 nM | IC50 (second compound 0.316 µM): < 31.6 nM | IC50 (second compound 1 µM): < 31.6 nM
Compound: CC(C)NCC(C(=O)N1CCN(c2ncnc3c2C(C)CC3O)CC1)c1ccc(Cl)cc1 (stereo not drawn) + COc1c(OCCCN2CCOCC2)ccc2c3n(c(=NC(=O)c4cnc(N)nc4)nc12)CCN3
viability, T/C [1]: 82.9% | viability, T/C [2]: 77.9% | viability, T/C [3]: 64.8% | viability, T/C [4]: 50.6% | viability, T/C [5]: 34.6% | viability, T/C [6]: 20.3% | viability, T/C [7]: 71.2% | viability, T/C [8]: 64.3% | viability, T/C [9]: 59.7% | viability, T/C [10]: 41.3% | viability, T/C [11]: 26.4% | viability, T/C [12]: 15.4% | viability, T/C [13]: 56.2% | viability, T/C [14]: 56.4% | viability, T/C [15]: 47.2% | viability, T/C [16]: 40% | viability, T/C [17]: 21.9% | viability, T/C [18]: 11.6% | viability, T/C [19]: 36.6% | viability, T/C [20]: 30.3% | viability, T/C [21]: 26% | viability, T/C [22]: 24.7% | viability, T/C [23]: 17.1% | viability, T/C [24]: 10.2% | viability, T/C [25]: 14.3% | viability, T/C [26]: 13.8% | viability, T/C [27]: 11.6% | viability, T/C [28]: 12.8% | viability, T/C [29]: 8.52% | viability, T/C [30]: 5.44% | viability, T/C [31]: 4.96% | viability, T/C [32]: 3.28% | viability, T/C [33]: 5.23% | viability, T/C [34]: 4.34% | viability, T/C [35]: 3.37% | viability, T/C [36]: 3.42%

IC50 (second compound 0.0316 µM): > 1000 nM | IC50 (second compound 0.1 µM): > 1000 nM | IC50 (second compound 0.316 µM): > 1000 nM | IC50 (second compound 1 µM): > 1000 nM | IC50 (second compound 3.16 µM): > 1000 nM | IC50 (second compound 10 µM): > 1000 nM
Compound: CCN1CCN(Cc2ccc(Nc3ncc(F)c(-c4cc(F)c5nc(C)n(C(C)C)c5c4)n3)nc2)CC1 + CC(Nc1ncnc2nc[nH]c12)c1cc2cccc(Cl)c2c(=O)n1-c1ccccc1
viability, T/C (second compound 0.0316 µM, first compound 0.00316 µM): 98.7% | viability, T/C (second compound 0.0316 µM, first compound 0.01 µM): 94.4% | viability, T/C [13]: 96.9% | viability, T/C [14]: 99% | viability, T/C [15]: 89.8% | viability, T/C [16]: 84.6% | viability, T/C (second compound 0.1 µM, first compound 0.00316 µM): 99.2% | viability, T/C (second compound 0.1 µM, first compound 0.01 µM): 93.1% | viability, T/C [19]: 103% | viability, T/C [20]: 108% | viability, T/C [21]: 95% | viability, T/C [22]: 99.6% | viability, T/C (second compound 0.316 µM, first compound 0.00316 µM): 103% | viability, T/C (second compound 0.316 µM, first compound 0.01 µM): 94.3% | viability, T/C [25]: 95.7% | viability, T/C [26]: 96.3% | viability, T/C [27]: 96.6% | viability, T/C [28]: 96.2% | viability, T/C (second compound 1 µM, first compound 0.00316 µM): 92.8% | viability, T/C (second compound 1 µM, first compound 0.01 µM): 93.6% | viability, T/C [31]: 91.9% | viability, T/C [32]: 90.6% | viability, T/C [33]: 89.2% | viability, T/C [34]: 91.6% | viability, T/C (second compound 3.16 µM, first compound 0.00316 µM): 80% | viability, T/C (second compound 3.16 µM, first compound 0.01 µM): 69.8% | viability, T/C (second compound 3.16 µM, first compound 0.0316 µM): 75.4% | viability, T/C (second compound 3.16 µM, first compound 0.1 µM): 79% | viability, T/C (second compound 3.16 µM, first compound 0.316 µM): 78.9% | viability, T/C (second compound 3.16 µM, first compound 1 µM): 75% | viability, T/C (second compound 10 µM, first compound 0.00316 µM): 56% | viability, T/C (second compound 10 µM, first compound 0.01 µM): 62.8% | viability, T/C (second compound 10 µM, first compound 0.0316 µM): 65% | viability, T/C (second compound 10 µM, first compound 0.1 µM): 67.4% | viability, T/C (second compound 10 µM, first compound 0.316 µM): 69.8% | viability, T/C (second compound 10 µM, first compound 1 µM): 53.6%

IC50 (second compound 0.00316 µM): > 10000 nM | IC50 (second compound 0.01 µM): > 10000 nM | IC50 (second compound 0.0316 µM): > 10000 nM | IC50 (second compound 0.1 µM): > 10000 nM | IC50 (second compound 0.316 µM): 4550 nM | IC50 (second compound 1 µM): < 31.6 nM
Compound: C[C@@H](NC(=O)c1ncnc(N)c1Cl)c1ncc(C(=O)Nc2cc(C(F)(F)F)c(Cl)cn2)s1 + CC(Nc1ccc2c(c1)OCCn1cc(N3C(=O)OCC3C(F)F)nc1-2)C(N)=O
viability, T/C [1]: 96.4% | viability, T/C [2]: 76.1% | viability, T/C [3]: 90.9% | viability, T/C [4]: 90.8% | viability, T/C [5]: 77.8% | viability, T/C [6]: 77.9% | viability, T/C [7]: 98.9% | viability, T/C [8]: 91.3% | viability, T/C [9]: 85.5% | viability, T/C [10]: 100% | viability, T/C [11]: 87.4% | viability, T/C [12]: 80.2% | viability, T/C [13]: 84.5% | viability, T/C [14]: 80.5% | viability, T/C [15]: 81.5% | viability, T/C [16]: 88.4% | viability, T/C [17]: 73.8% | viability, T/C [18]: 64% | viability, T/C [19]: 59.6% | viability, T/C [20]: 66.3% | viability, T/C [21]: 61.8% | viability, T/C [22]: 77.5% | viability, T/C [23]: 60.5% | viability, T/C [24]: 58.4% | viability, T/C [25]: 62.9% | viability, T/C [26]: 50.2% | viability, T/C [27]: 53.9% | viability, T/C [28]: 60.4% | viability, T/C [29]: 55.1% | viability, T/C [30]: 42.2% | viability, T/C [31]: 42.1% | viability, T/C [32]: 44.4% | viability, T/C [33]: 46.2% | viability, T/C [34]: 38.2% | viability, T/C [35]: 43.3% | viability, T/C [36]: 32.9%

IC50 (second compound 0.00316 µM): 383 nM | IC50 (second compound 0.01 µM): 294 nM | IC50 (second compound 0.0316 µM): 328 nM | IC50 (second compound 0.1 µM): 160 nM | IC50 (second compound 0.316 µM): < 31.6 nM | IC50 (second compound 1 µM): < 31.6 nM
Compound: Cn1ncc(Cl)c1-c1cc(C(=O)NC(CN)Cc2cccc(F)c2)sc1Cl (stereo not drawn) + CC(Nc1ccc2c(c1)OCCn1cc(N3C(=O)OCC3C(F)F)nc1-2)C(N)=O
viability, T/C [1]: 82.5% | viability, T/C [2]: 67.8% | viability, T/C [3]: 47.6% | viability, T/C [4]: 39.8% | viability, T/C [5]: 29.7% | viability, T/C [6]: 9.51% | viability, T/C [7]: 80.8% | viability, T/C [8]: 62.8% | viability, T/C [9]: 50% | viability, T/C [10]: 33.6% | viability, T/C [11]: 26.7% | viability, T/C [12]: 12.8% | viability, T/C [13]: 74.2% | viability, T/C [14]: 61.8% | viability, T/C [15]: 48.8% | viability, T/C [16]: 39.3% | viability, T/C [17]: 26.6% | viability, T/C [18]: 11.5% | viability, T/C [19]: 66.9% | viability, T/C [20]: 53.3% | viability, T/C [21]: 45.8% | viability, T/C [22]: 26.9% | viability, T/C [23]: 24.7% | viability, T/C [24]: 8% | viability, T/C [25]: 45.5% | viability, T/C [26]: 43.3% | viability, T/C [27]: 34.3% | viability, T/C [28]: 25.6% | viability, T/C [29]: 22.4% | viability, T/C [30]: 14.1% | viability, T/C [31]: 40.9% | viability, T/C [32]: 36.8% | viability, T/C [33]: 30.3% | viability, T/C [34]: 24.8% | viability, T/C [35]: 23.7% | viability, T/C [36]: 10.5%
